Test results published in patent publication US20230257366A1, “SULFUR-CONTAINING ISOINDOLINE DERIVATIVE, AND PREPARATION METHOD THEREFOR AND MEDICAL USE THEREOF” (JIANGSU HENGRUI PHARMACEUTICALS CO., LTD., priority 2020, published 2023).

Test: Pharmacokinetic evaluation in mice after intragastric administration (LC/MS/MS)
Type: in vivo
Settings: female, mouse, plasma, po, mice, intragastric, 2 mg/kg
Experimental: The drug concentration in the plasma of the test animals (mice) at different time points after intragastric administration of the compound of Example 6 and the control example CC-92480 was determined by an LC/MS/MS method. The pharmacokinetic behavior of the compound of the present disclosure in mice was studied and its pharmacokinetic profile was evaluated.
Compound of Example 6 and control example CC-92480.
Eighteen mice, female, purchased from Beijing Vital River Laboratory Animal Technology Co., Ltd., with animal production license number of SCXK (Shanghai) 2017-0005.
A certain amount of compound of Example 6 was weighed, dissolved by adding 5% by volume of DMSO and 5% Tween 80 (Shanghai Titan Scientific Co., Ltd.), and then prepared into a 0.1 mg/mL clear solution by adding 90% normal saline.
A certain amount of the control example CC-92480 was weighed, dissolved by adding 5% by volume of DMSO and 5% Tween 80 (Shanghai Titan Scientific Co., Ltd.), and then prepared into a 0.1 mg/mL clear solution by adding 90% normal saline.
Nine mice were intragastrically administered with the compound of Example 6 at a dose of 2 mg/kg and at a volume of 0.2 mL/10 g.
Nine mice were intragastrically administered with the control example CC-92480 at a dose of 2 mg/kg and at a volume of 0.2 mL/10 g.
Mice were intragastrically administered with the compound of Example 6 and the control example CC-92480, and 0.2 mL of blood was collected before the administration and 0.25 h, 0.5 h, 1.0 h, 2.0 h, 4.0 h, 6.0 h, 8.0 h, 11.0 h and 24.0 h after the administration (3 animals at each time point), placed in EDTA-K2 anticoagulation tubes, and centrifuged at 10,000 rpm for 1 min(4° C.). Plasma was separated within 1 h, and stored at −20° C. for testing. The process from blood collection to centrifugation was performed under an ice bath.
The content of the test compounds at different concentrations in mouse plasma after the administration was determined: 25 μL of mouse plasma at each time point after the administration was mixed with 50 μL (100 ng/mL) of internal standard solution camptothecin (National Institutes for Drug Control) and 175 μL of acetonitrile. The mixture was vortexed for 5 min and centrifuged for 10 min (3700 rpm/min), and 1 μL of the supernatant of the plasma sample was taken for LC/MS/MS assay (API4000 triple quadrupole tandem mass spectrometer, Applied Biosystems, USA; Shimadzu, LC-30AD ultra high performance liquid chromatography system, Shimadzu, Japan).

## N#Cc1ccc(N2CCC(Sc3ccc(COc4cccc5c4CN([C@H]4CCC(=O)NC4=O)C5=O)cn3)CC2)c(F)c1 [Compound 6, (S)-4-(4-((5-(((2-(2,6-dioxopiperidin-3-yl)-1-oxoisoindolin-4-yl)oxy)methyl)pyridin-2-yl)thio)piperidin-1-yl)-3-fluorobenzonitrile]
read-out: Apparent volume of distribution Vz/F
  Vd/F: 1.79 L/kg
read-out: Area under curve AUC
  AUC: 4690 ng·h/mL
read-out: Clearance CL/F
  CL/F: 7.1 mL/min/kg
read-out: Half-life T½ (converted)
  half-life: 2.9 h
read-out: Plasma concentration Cmax
  Cmax: 799 ng/mL
read-out: Residence time MRT
  MRT: 4.6 h
